Marks after values point to notes of the source that are not given here.
test system: ddy mice; assay: Toxicity test in ddy mice; type: in vivo; conditions: 100 mg/kg (i. p.), 24 hours after administration
Procedure: Test Example 3 Toxicity Test
A test compound was administered into ddy mice to investigate its toxicity. The test compound was intraperitoneally administered in a dosage of 100 mg/kg; the mortality rate of the mice 24 hours after the administration was examined; and the toxicity of the test compound was evaluated from the mortality rate.

SMILES | Mortality rate (%)
O=C(c1cccnc1)N1CC2COc3ccccc3C2=N1 (stereo not shown) [Example 26, 2-nicotinoyl-3,3a-dihydro-2H,4H-[1]-benzopyrano[4,3-c]pyrazole] | 0
CS(=O)(=O)O.O=C(c1cccnc1)N1CCC(c2ccccc2)=N1 [Example 5, 1-nicotinoyl-3-phenyl-2-pyrazoline methanesulfonate] | 0

test system: rat models of middle cerebral artery obstruction; assay: Action for cerebral infarct caused by middle cerebral artery obstruction in rat; type: in vivo; conditions: male SD rats, left MCA obstruction; 10 mg/kg intravenously for 24 hours from right after obstruction; brain taken 24 hours after obstruction, TTC; control group 224.4 ± 71.5
Procedure: Test Example 2 Action for Cerebral Infarct Caused by Middle Cerebral Artery Obstruction in Rat
Preparation of rat models having middle cerebral artery obstruction was conducted according to a method of Tamura et al. [J. Cerebral Blood Flow and Metabolism, 53-60 (1981)]. Specifically, 9 to 10 week-old male SD strain rats were used and their left middle cerebral arteries were obstructed under anesthesia by […] halosen. The compound of Example 5 or 26 was used as a test compound. The compound of Example 5 was intravenously administered in a dosage of 10 mg/kg for 24 hours from right after the obstruction; and the compound of Example 26 was intraperitoneally administered in a dosage of 50 mg/kg right after the obstruction and 6 hours after the obstruction. The brain of each rat was taken out 24 hours after the obstruction of rat middle cerebral artery, was divided into 6 parts, and was dyed with TTC. The section of each dyed part was photographed, and the focus of cerebral infarct was measured using an image analyzer. The rats in control group were as well subjected to middle cerebral artery obstruction.

SMILES | Focus of cerebral infarct (mm^3)
CS(=O)(=O)O.O=C(c1cccnc1)N1CCC(c2ccccc2)=N1 [Example 5, 1-nicotinoyl-3-phenyl-2-pyrazoline methanesulfonate] | 131.7 ± 51.6** mm^3

same assay, conditions: male SD rats, left MCA obstruction; 50 mg/kg intraperitoneally right after and 6 hours after obstruction; brain taken 24 hours after obstruction, TTC; control group 188.0 ± 54.8

SMILES | Focus of cerebral infarct (mm^3)
O=C(c1cccnc1)N1CC2COc3ccccc3C2=N1 (stereo not shown) [Example 26, 2-nicotinoyl-3,3a-dihydro-2H,4H-[1]-benzopyrano[4,3-c]pyrazole] | 135.9 ± 30.5* mm^3

test system: not given; assay: not given; conditions: not given

SMILES | melting point [°C]
Cc1cccc(C2=NN(C(=O)c3cccnc3)CC2)c1 [Example 20, 1-nicotinoyl-3-(3-methylphenyl)-2-pyrazoline] | 99 to 100
O=C(c1cnccn1)N1CC2CSc3ccccc3C2=N1 (stereo not shown) [Example 40, 2-(2-pyrazinoyl)-3,3a-dihydro-2H,4H-[1]-benzothiopyrano-[4,3-c]pyrazole] | 190 to 192
Cc1ccc(C2=NN(C(=O)c3cccnc3)CC2)cc1 [Example 19, 1-nicotinoyl-3-(4-methylphenyl)-2-pyrazoline] | 100 to 102
COc1ccccc1C1=NN(C(=O)c2cccnc2)CC1C (stereo not shown) [Example 15, 1-nicotinoyl-3-(2-methoxyphenyl)-4-methyl-2-pyrazoline] | 124 to 125
O=C(c1cccnc1)N1CCC(c2cccc(Cl)c2)=N1 [Example 11, 1-nicotinoyl-3-(3-chlorophenyl)-2-pyrazoline] | 124 to 126
COc1ccc(C2=NN(C(=O)c3cccnc3)CC2)c(OC)c1 [Example 16, 1-nicotinoyl-3-(2,4-dimethoxyphenyl)-2-pyrazoline] | 112 to 113
O=C(c1cccnc1)N1CCC(c2ccc([N+](=O)[O-])cc2)=N1 [Example 24, 1-nicotinoyl-3-(4-nitrophenyl)-2-pyrazoline] | 175 to 177
COc1ccc(C2=NN(C(=O)c3cccnc3)CC2)cc1 [Example 13, 1-nicotinoyl-3-(4-methoxyphenyl)-2-pyrazoline] | 132 to 134
CCOc1ccc(C2=NN(C(=O)c3cccnc3)CC2)cc1 [Example 17, 1-nicotinoyl-3-(4-ethoxyphenyl)-2-pyrazoline] | 124 to 125
O=C(c1cccnc1)N1CCC(c2ccc(F)cc2)=N1 [Example 7, 1-nicotinoyl-3-(4-fluorophenyl)-2-pyrazoline] | 128 to 130
CCOc1ccccc1C1=NN(C(=O)c2cccnc2)CC1 [Example 18, 1-nicotinoyl-3-(2-ethoxyphenyl)-2-pyrazoline] | 155 to 157
COc1ccccc1C1=NN(C(=O)c2cccnc2)CC1 [Example 14, 1-nicotinoyl-3-(2-methoxyphenyl)-2-pyrazoline] | 130 to 132
Cc1ccc(C2=NN(C(=O)c3cccnc3)CC2)c(C)c1 [Example 22, 1-nicotinoyl-3-(2,4-dimethylphenyl)-2-pyrazoline] | 102 to 104
O=C(c1cccnc1)N1CCC(c2ccccc2[N+](=O)[O-])=N1 [Example 25, 1-nicotinoyl-3-(2-nitrophenyl)-2-pyrazoline] | 123 to 125

biological target: T1, rat GLT-1 (Rattus norvegicus, UniProt P31596); assay: Activating action for glia type glutamic acid transporter (GLT-1): [3H]-glutamate intake in COS-7 cells; type: cell-based; conditions: test compound 100 μM, treated from 1 hour before [3H]-glutamate (2 μM), 3 min uptake; COS-7 cells expressing rat GLT-1; percentage relative to solvent-treated group
T1 construct: expressed in transfected cells; host or cells: COS-7 cells
T1 sequence (P31596 whole entry): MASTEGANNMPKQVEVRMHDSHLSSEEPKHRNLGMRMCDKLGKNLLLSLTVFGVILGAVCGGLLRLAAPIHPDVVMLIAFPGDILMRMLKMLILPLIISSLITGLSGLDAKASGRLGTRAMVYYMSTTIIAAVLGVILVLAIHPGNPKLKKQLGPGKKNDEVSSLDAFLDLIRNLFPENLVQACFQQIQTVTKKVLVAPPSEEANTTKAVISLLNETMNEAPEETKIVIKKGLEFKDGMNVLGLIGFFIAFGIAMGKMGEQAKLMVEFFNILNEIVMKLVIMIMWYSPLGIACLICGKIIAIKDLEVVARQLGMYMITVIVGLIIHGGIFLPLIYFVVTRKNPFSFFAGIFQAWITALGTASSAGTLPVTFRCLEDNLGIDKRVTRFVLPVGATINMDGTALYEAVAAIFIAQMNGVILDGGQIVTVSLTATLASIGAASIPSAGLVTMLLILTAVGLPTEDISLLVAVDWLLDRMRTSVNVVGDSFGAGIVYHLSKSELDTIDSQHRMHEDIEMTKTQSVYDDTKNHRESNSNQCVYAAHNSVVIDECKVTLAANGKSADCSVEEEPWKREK
Procedure: Test Example 1 Activating Action for Glia Type Glutamic Acid Transporter (GLT-1)
Activating action for GLT-1 was evaluated by a test using COS-7 cells into which rat GLT-1 had been introduced. To COS-7 cells capable of expressing GLT-1 was added a [^3H]-glutamate-containing KRH solution (200 μl, final concentration: 2 μM). 3 minutes later, the ^3H amount was measured using a scintillation counter. A test compound (100 μM) was dissolved in the KRH solution and a treatment was conducted from 1 hour before the addition of [^3H]-glutamate. The action of the test compound for intake of glutamic acid was expressed as a percentage relative to the glutamic acid intake ability of solvent-treated group.
Glutamic acid intake (%)=[test compound (dpm)/control (dpm)]×100
This test was conducted based on a method by Shimada et al. [Eur. J. Pharmacol., 386, 263-270 ([…])].

SMILES | Glutamic acid intake (%)
Cc1cccc(C2=NN(C(=O)c3cccnc3)CC2)c1 [Example 20, 1-nicotinoyl-3-(3-methylphenyl)-2-pyrazoline] | 134
O=C(c1cccnc1)N1CCC(c2ccc(Br)cc2)=N1 [Example 9, 1-nicotinoyl-3-(4-bromophenyl)-2-pyrazoline] | 138
O=C(c1cccnc1)N1CCC(c2ccccc2C(F)(F)F)=N1 [Example 23, 1-nicotinoyl-3-(2-trifluoromethylphenyl)-2-pyrazoline] | 128
O=C(c1cccnc1)N1CC2COc3cc(Cl)ccc3C2=N1 (stereo not shown) [Example 31, 2-nicotinoyl-7-chloro-3,3a-dihydro-2H,4H-[1]-benzopyrano[4,3-c]pyrazole] | 125
Cc1ccccc1C1=NN(C(=O)c2cccnc2)CC1 [Example 21, 1-nicotinoyl-3-(2-methylphenyl)-2-pyrazoline] | 129
O=C(c1cnccn1)N1CC2CS(=O)(=O)c3ccccc3C2=N1 (stereo not shown) [Example 42, 2-(2-pyrazinoyl)-3,3a-dihydro-2H,4H-[1]-benzothiopyrano-[4,3-c]pyrazole-S-dioxide] | 125
Cc1ccc(C2=NN(C(=O)c3cccnc3)CC2)cc1 [Example 19, 1-nicotinoyl-3-(4-methylphenyl)-2-pyrazoline] | 131
O=C(c1cccnc1)N1CCCC(c2ccccc2)=N1 [Example 1, 1-nicotinoyl-3-phenyl-1,4,5,6-tetrahydropyridazine] | 136
COc1ccccc1C1=NN(C(=O)c2cccnc2)CC1C (stereo not shown) [Example 15, 1-nicotinoyl-3-(2-methoxyphenyl)-4-methyl-2-pyrazoline] | 134
O=C(c1cccnc1)N1CCC(c2cccc(Cl)c2)=N1 [Example 11, 1-nicotinoyl-3-(3-chlorophenyl)-2-pyrazoline] | 140
O=C(c1cccnc1)N1CCC(c2ccc(Cl)cc2)=N1 [Example 10, 1-nicotinoyl-3-(4-chlorophenyl)-2-pyrazoline] | 135
COc1ccc(C2=NN(C(=O)c3cccnc3)CC2)c(OC)c1 [Example 16, 1-nicotinoyl-3-(2,4-dimethoxyphenyl)-2-pyrazoline] | 126
O=C(c1cccnc1)N1CCC(c2ccc([N+](=O)[O-])cc2)=N1 [Example 24, 1-nicotinoyl-3-(4-nitrophenyl)-2-pyrazoline] | 130
O=C(c1cccnc1)N1CCC(c2ccccc2Cl)=N1 [Example 12, 1-nicotinoyl-3-(2-chlorophenyl)-2-pyrazoline] | 134
COc1ccc(C2=NN(C(=O)c3cccnc3)CC2)cc1 [Example 13, 1-nicotinoyl-3-(4-methoxyphenyl)-2-pyrazoline] | 129
CCOc1ccc(C2=NN(C(=O)c3cccnc3)CC2)cc1 [Example 17, 1-nicotinoyl-3-(4-ethoxyphenyl)-2-pyrazoline] | 129
O=C(c1cnccn1)N1CCCC(c2ccccc2)=N1 [Example 2, 1-(2-Pyrazinoyl)-3-phenyl-1,4,5,6-tetrahydropyridazine] | 126
O=C(c1cccnc1)N1CCC(c2ccc(F)cc2)=N1 [Example 7, 1-nicotinoyl-3-(4-fluorophenyl)-2-pyrazoline] | 143
O=C(c1cccnc1)N1CC2COc3ccccc3C2=N1 (stereo not shown) [Example 26, 2-nicotinoyl-3,3a-dihydro-2H,4H-[1]-benzopyrano[4,3-c]pyrazole] | 131
O=C(c1cccnc1)N1CCC(c2ccccc2F)=N1 [Example 8, 1-nicotinoyl-3-(2-fluorophenyl)-2-pyrazoline] | 134
COc1ccccc1C1=NN(C(=O)c2cccnc2)CC1 [Example 14, 1-nicotinoyl-3-(2-methoxyphenyl)-2-pyrazoline] | 124
CS(=O)(=O)O.O=C(c1cccnc1)N1CCC(c2ccccc2)=N1 [Example 5, 1-nicotinoyl-3-phenyl-2-pyrazoline methanesulfonate] | 145

Source: patent US6831083B2, “Pyrazoline derivative or tetrahydropyridazine derivative and medicinal use thereof” (Mitsui Chemicals, Inc., priority 2000, dated 2004)
